Experimental findings from patent publication EP0724884B1, “SIDE EFFECT INHIBITOR FOR CANCER THERAPY” (Nakamura, Toshikazu, priority 1991, dated 1993) are described below.

The structures appear in SMILES notation.

This series deals with primary-culture hepatocytes. In words: Leakage of GOT from primary-culture hepatocytes exposed to liver poison (Test Examples 1-4). It is filed as cell-based, rat. The note with it: Liver poison alone, no addition of HGF (Carbon tetrachloride 5 mM; Mitomycin C 8 µM); culture for 24 hours; control 6.0 ± 0.4.

Method: The primary culture was carried out as follows: Isolated hepatocytes were dispersed in William's medium (5% bovine serum, 10^-9 M insulin and 10^-9 M dexamethasone) and the cells were seeded in a 12-well plastic dish (Corning Co.) having the bottom coated with Type-I collagen. The culture medium was exchanged with the medium containing aprotinin at 0.5 µg/ml and without serum and hormones 2 hours later.
The protective effect of HGF on the hepatocytes was tested by the effect on the leakage to enzymes from the cytoplasm of the hepatocytes in the primary culture.
In order to mimick this phenomenon, hepatocyte primary-culture added with the liver poison was used. Thus the leakage of cytoplasmic enzymes such as GOT was measured in this culture system, and the protective activity on the hepatocytes by HGF was estimated along with measurement of the degree of inhibition of leakage of GOT or others. […]
The primary-culture hepatocytes described in Reference Example 3 were seeded at the surface density of 1.2 x 10^5 cells/cm^2 and on the next day, the medium was changed to one without serum, followed by the addition of HGF at 10 ng/ml and/or carbon tetrachloride at 5 mM. […] The GOT activity in the supernatant was measured by the conventional method. […]

Consider `ClC(Cl)(Cl)Cl` [Carbon tetrachloride], for which the GOT activity was 12.7 ± 1.2 mU/ml.
